Results reported in PubChem BioAssay AID2060607 (Molecular Pharmacology Branch, DTP, NCI, 2025).

Tested on: 876862-298-R-J1-PDC complex spheroids, viability % test/control
Test: Anticancer human tumor 876862-298-R-J1-PDC patient-derived endometrial carcinoma cell line growth inhibition [CLK]
Conditions: for IC50: curve of first compound; for viability, T/C: stronger effect = lower value
Source text: A high-throughput screen of multi-cell type tumor spheroids was designed to identify active combinations of […] and targeted small molecules. Complex spheroids include a stromal component modeled by human endothelial cells (HUVEC) and fibroblasts modeled by human mesenchymal stem cells (MSCs). The concentration ranges selected for each drug and investigational agent were based upon clinically achievable concentrations if the clinical Cmax of the agent was known.
Compounds. The drugs and investigational agents: cirtuvivint (SM08502; NSC835563), CC-671 (NSC850746), vemurafenib (NSC761431), tapotoclax (NSC804041), sotorasib (NSC818433), adagrasib (NSC831453), MRTX-1133 (NSC836407), BAY2416964 (NSC825713), copanlisib (NSC816437), inavolisib (NSC800729), abemaciclib (NSC768073), osimertinib (NSC779217), entinostat (NSC756642), eltanexor (KPT-8602, NSC794443), venetoclax (NSC766270), ceralasertib (NSC777638), bortezomib (NSC756655), olaparib (NSC753686), talazoparib (NSC767125), alisertib (NSC759677), peposertib (NSC802822), gemcitabine (NSC613327), 5-fluorouracil (NSC19893), SN-38 (NSC673596), oxaliplatin (NSC266046), paclitaxel (NSC125973), and doxorubicin (NSC123127), were obtained from the National Cancer Institute (NCI) Developmental Therapeutics Program Chemical Repository. The FDA-approved anticancer drug set is available from the Developmental Therapeutics Program at https://dtp.cancer.gov/organization/dscb/obtaining/available plates.htm. […] The stock solutions were prepared in dimethyl sulfoxide (DMSO, Sigma-Aldrich, St. Louis, MO, cat. D2650), except for the platinum complexes which were prepared in saline (Quality Biological, Gaithersburg, MD, cat. 114-055-101), at 800-fold the tested concentration and stored at -70 degrees C prior to their use. All drugs and investigational agents were tested over a range starting from a high concentration at or near the clinical Cmax and decreasing in half-log increments. If the clinical Cmax for an agent had not been determined, the highest concentration tested was 10 microM.
Cell Culture. All cells were maintained in an incubator at 37 degrees C and 5% CO2 with 95% humidity. The PDC lines were cultured according to standard operating procedures established by the NCI PDMR. Briefly, all PDCs were thawed and cultured in Matrigel-coated flasks prepared with a working solution of 1X Ham's F-12 nutrient mix, without supplementation (Invitrogen, Waltham, MA, cat. 11765054), 100 U/mL penicillin-streptomycin (Invitrogen, cat. 15140122), and 2.5% Matrigel (Corning Inc., Corning, NY, cat. 354248) for the first three passages. The 947758-054-R-J2-PDC line was cultured in 6B/Colon 1A media, which includes advanced DMEM/F-12 (Thermo Fisher Scientific, cat. 12634028), 10 mM HEPES (Thermo Fisher Scientific, cat. 15630080), 1X GlutaMAX supplement (Thermo Fisher Scientific, cat. 35050061), 0.1 mg/mL primocin (InvivoGen, cat. ant-pm-2), 10% defined fetal bovine serum, heat inactivated (HyClone Laboratories Inc., cat. SH30070.03HI), 1.25 mM N-Acetyl-L-cysteine (Sigma-Aldrich, cat. A9165), 10 mM nicotinamide (Sigma-Aldrich, cat. N0636), 1X B-27 supplement (Thermo Fisher Scientific, cat. 17504044), 1X N-2 supplement (Thermo Fisher Scientific, cat. 17502048), and 10 microM Y-27632 dihydrochloride (Tocris Bioscience, cat. 1254). The 876862-298-R-J1-PDC was cultured in 6E media, which includes all 6B/Colon 1A media components plus 50% L-WRN conditioned media (ATCC, cat. CRL-3276), 50 ng/mL recombinant human EGF recombinant protein (hEGF; Thermo Fisher Scientific, cat. PHG0311), 10 ng/mL recombinant human fibroblast growth factor 10 (hGFG-10; PeproTech, cat. 100-26), 1 ng/mL recombinant human fibroblast growth factor 2 (hFGF-2; PeproTech, cat. 100-18B), and 1 µM prostaglandin E2 (PGE2; Tocris, cat. 2296). The 227483-062-R1-J1-PDC line was cultured in Panc media, containing all 6E components except hFGF-2, with the addition of 500 nM SB-431542 (Selleckchem, cat. S1067) and 10 nM gastrin (Tocris, cat. 3006). […]

[1] = second compound 0.0316 µM, first compound 0.0316 µM
[2] = second compound 0.0316 µM, first compound 0.1 µM
[3] = second compound 0.0316 µM, first compound 0.316 µM
[4] = second compound 0.0316 µM, first compound 1 µM
[5] = second compound 0.1 µM, first compound 0.0316 µM
[6] = second compound 0.1 µM, first compound 0.1 µM
[7] = second compound 0.1 µM, first compound 0.316 µM
[8] = second compound 0.1 µM, first compound 1 µM
[9] = second compound 0.316 µM, first compound 0.0316 µM
[10] = second compound 0.316 µM, first compound 0.1 µM
[11] = second compound 0.316 µM, first compound 0.316 µM
[12] = second compound 0.316 µM, first compound 1 µM
[13] = second compound 1 µM, first compound 0.0316 µM
[14] = second compound 1 µM, first compound 0.1 µM
[15] = second compound 1 µM, first compound 0.316 µM
[16] = second compound 1 µM, first compound 1 µM
[17] = second compound 3.16 µM, first compound 0.0316 µM
[18] = second compound 3.16 µM, first compound 0.1 µM
[19] = second compound 3.16 µM, first compound 0.316 µM
[20] = second compound 3.16 µM, first compound 1 µM
[21] = second compound 10 µM, first compound 0.0316 µM
[22] = second compound 10 µM, first compound 0.1 µM
[23] = second compound 10 µM, first compound 0.316 µM
[24] = second compound 10 µM, first compound 1 µM
[25] = second compound 0.0316 µM, first compound 0.00316 µM
[26] = second compound 0.0316 µM, first compound 0.01 µM
[27] = second compound 0.1 µM, first compound 0.00316 µM
[28] = second compound 0.1 µM, first compound 0.01 µM
[29] = second compound 0.316 µM, first compound 0.00316 µM
[30] = second compound 0.316 µM, first compound 0.01 µM
[31] = second compound 1 µM, first compound 0.00316 µM
[32] = second compound 1 µM, first compound 0.01 µM
[33] = second compound 3.16 µM, first compound 0.00316 µM
[34] = second compound 3.16 µM, first compound 0.01 µM
[35] = second compound 10 µM, first compound 0.00316 µM
[36] = second compound 10 µM, first compound 0.01 µM
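Further: spheroids exposed to drugs for 7 days before readout.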
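Wherever viability, T/C is given: 100% = DMSO vehicle control wells.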

## CC(Nc1ccc2c(c1)OCCn1cc(N3C(=O)OCC3C(F)F)nc1-2)C(N)=O (stereo unspecified) + CN1CCN(c2cc(C(=O)Nc3cc4cc(-c5cnn(C)c5)ccc4cn3)ccn2)CC1
Second compound 0.0316 µM
  IC50: 862 nM
Second compound 0.1 µM
  IC50: < 31.6 nM
Second compound 0.316 µM
  IC50: < 31.6 nM
Second compound 1 µM
  IC50: < 31.6 nM
Second compound 3.16 µM
  IC50: < 31.6 nM
Second compound 10 µM
  IC50: < 31.6 nM
[1]
  viability, T/C: 88.6%
[2]
  viability, T/C: 79%
[3]
  viability, T/C: 56.9%
[4]
  viability, T/C: 50%
Second compound 0.0316 µM, first compound 3.16 µM
  viability, T/C: 38.6%
Second compound 0.0316 µM, first compound 10 µM
  viability, T/C: 28.6%
[5]
  viability, T/C: 43%
[6]
  viability, T/C: 41.3%
[7]
  viability, T/C: 32.6%
[8]
  viability, T/C: 25.1%
Second compound 0.1 µM, first compound 3.16 µM
  viability, T/C: 21.5%
Second compound 0.1 µM, first compound 10 µM
  viability, T/C: 15.5%
[9]
  viability, T/C: 3.15%
[10]
  viability, T/C: 3.14%
[11]
  viability, T/C: 3.55%
[12]
  viability, T/C: 2.62%
Second compound 0.316 µM, first compound 3.16 µM
  viability, T/C: 2.92%
Second compound 0.316 µM, first compound 10 µM
  viability, T/C: 3.77%
[13]
  viability, T/C: 0.54%
[14]
  viability, T/C: 0.79%
[15]
  viability, T/C: 1.03%
[16]
  viability, T/C: 0.19%
Second compound 1 µM, first compound 3.16 µM
  viability, T/C: 0.18%
Second compound 1 µM, first compound 10 µM
  viability, T/C: 1.05%
[17]
  viability, T/C: 0.69%
[18]
  viability, T/C: 2.49%
[19]
  viability, T/C: 1.55%
[20]
  viability, T/C: 2.4%
Second compound 3.16 µM, first compound 3.16 µM
  viability, T/C: 2.04%
Second compound 3.16 µM, first compound 10 µM
  viability, T/C: 0.86%
[21]
  viability, T/C: 1.76%
[22]
  viability, T/C: 0.59%
[23]
  viability, T/C: 1.6%
[24]
  viability, T/C: 0.79%
Second compound 10 µM, first compound 3.16 µM
  viability, T/C: 0.45%
Second compound 10 µM, first compound 10 µM
  viability, T/C: 1.26%

## CCN1CCN(Cc2ccc(Nc3ncc(F)c(-c4cc(F)c5nc(C)n(C(C)C)c5c4)n3)nc2)CC1 + CN1CCN(c2cc(C(=O)Nc3cc4cc(-c5cnn(C)c5)ccc4cn3)ccn2)CC1
Second compound 0.0316 µM
  IC50: 678 nM
Second compound 0.1 µM
  IC50: < 3.16 nM
Second compound 0.316 µM
  IC50: < 3.16 nM
Second compound 1 µM
  IC50: < 3.16 nM
Second compound 3.16 µM
  IC50: < 3.16 nM
Second compound 10 µM
  IC50: < 3.16 nM
[25]
  viability, T/C: 90.2%
[26]
  viability, T/C: 81.3%
[1]
  viability, T/C: 73.3%
[2]
  viability, T/C: 74.8%
[3]
  viability, T/C: 52.3%
[4]
  viability, T/C: 47.5%
[27]
  viability, T/C: 47%
[28]
  viability, T/C: 45%
[5]
  viability, T/C: 44.1%
[6]
  viability, T/C: 47.3%
[7]
  viability, T/C: 40.9%
[8]
  viability, T/C: 43.3%
[29]
  viability, T/C: 5.03%
[30]
  viability, T/C: 5.13%
[9]
  viability, T/C: 6.69%
[10]
  viability, T/C: 7.27%
[11]
  viability, T/C: 9.15%
[12]
  viability, T/C: 9.4%
[31]
  viability, T/C: 0.94%
[32]
  viability, T/C: 1.28%
[13]
  viability, T/C: 1.38%
[14]
  viability, T/C: 1.66%
[15]
  viability, T/C: 2.25%
[16]
  viability, T/C: 3.04%
[33]
  viability, T/C: 1.66%
[34]
  viability, T/C: 0.97%
[17]
  viability, T/C: 1.47%
[18]
  viability, T/C: 1.34%
[19]
  viability, T/C: 2.18%
[20]
  viability, T/C: 3.2%
[35]
  viability, T/C: 0.6%
[36]
  viability, T/C: 0.92%
[21]
  viability, T/C: 1.95%
[22]
  viability, T/C: 2.18%
[23]
  viability, T/C: 1.88%
[24]
  viability, T/C: 2.14%

## COc1c(OCCCN2CCOCC2)ccc2c3n(c(=NC(=O)c4cnc(N)nc4)nc12)CCN3 + CN1CCN(c2cc(C(=O)Nc3cc4cc(-c5cnn(C)c5)ccc4cn3)ccn2)CC1
Second compound 0.0316 µM
  IC50: 48.3 nM
Second compound 0.1 µM
  IC50: < 3.16 nM
Second compound 0.316 µM
  IC50: < 3.16 nM
Second compound 1 µM
  IC50: < 3.16 nM
Second compound 3.16 µM
  IC50: < 3.16 nM
Second compound 10 µM
  IC50: < 3.16 nM
[25]
  viability, T/C: 90.4%
[26]
  viability, T/C: 74.4%
[1]
  viability, T/C: 65.2%
[2]
  viability, T/C: 26.8%
[3]
  viability, T/C: 16.7%
[4]
  viability, T/C: 17.8%
[27]
  viability, T/C: 47.1%
[28]
  viability, T/C: 40%
[5]
  viability, T/C: 28.3%
[6]
  viability, T/C: 14.6%
[7]
  viability, T/C: 11.1%
[8]
  viability, T/C: 13.2%
[29]
  viability, T/C: 4.86%
[30]
  viability, T/C: 2.92%
[9]
  viability, T/C: 3.87%
[10]
  viability, T/C: 3.03%
[11]
  viability, T/C: 3.72%
[12]
  viability, T/C: 2.59%
[31]
  viability, T/C: 0.47%
[32]
  viability, T/C: 1.56%
[13]
  viability, T/C: 0.48%
[14]
  viability, T/C: 0.16%
[15]
  viability, T/C: 1.64%
[16]
  viability, T/C: 1.15%
[33]
  viability, T/C: 1.02%
[34]
  viability, T/C: 1.06%
[17]
  viability, T/C: 1.3%
[18]
  viability, T/C: 1.09%
[19]
  viability, T/C: 1.55%
[20]
  viability, T/C: 0.99%
[35]
  viability, T/C: 0.74%
[36]
  viability, T/C: 1.11%
[21]
  viability, T/C: 0.45%
[22]
  viability, T/C: 1.75%
[23]
  viability, T/C: 2.12%
[24]
  viability, T/C: 1.84%
